From patent publication US4965283A, “Amino acid esters, process for the preparation thereof and use thereof” (Dr. Willmar Schwabe GmbH & Co., priority 1987, dated 1990)
Structures can show the parent of a compound that is named as a salt. Where two headings read alike, the source gives them in different places.

How the values were obtained:
[1] = test system: mouse; test: observation for neurotoxicity symptoms (motility, muscle tonus, respiratory frequency, body temperature, general behaviour); format: in vivo
Procedure: During the experiments described above, the animals were observed during the whole of the experimental period (up to 4 hours) for signs of substance-caused changes of behaviour and neurotoxicity (motility, muscle tonus, respiratory frequency, body temperature and general behaviour).

[2] = test system: maximum electroshock spasm (MES), extensor spasm in mice; test: MES test (maximum electroshock; inhibition of extensor spasm); format: in vivo, male mice (NMRI); settings: for responders at 50 mg/kg / responders at 100 mg/kg / ED50: Mus musculus; for ED50: read-out: ED 50 values; for ED 50 values (estimated values): * estimated from several tests with different dosages
Source text: For the determination of the anticonvulsive/anti-epileptic activity of the substances according to the present invention the method described by E. A. Swinyard et al., J. Pharmacol. exp. Therapeut. 106, 319-330 (1952) and by L. A. Woodbury et al., Arch. int. Pharmacodyn., 92, 97-107 (1952) was used. To male mice (NMRI) with a body weight of 20-25 g via corneal electrodes, an alternating current of 50 Hz and 50 mA is applied for 0.2 sec. (HSE-shock stimulation apparatus; type 207). The maximum electroshock spasm (MES) consists of a tonic extension of the rear extremities, the clonic twitch and loss of consciousness. The activity criterion is taken as being the inhibition of the extensor spasm by the substances according to the present invention. Before the experiments the mice had free access to feed and water. The test substances were administered orally as suspensions in 0.2% agar by stomach tubes; the control animals received adequate volumes of agar. 1 hour and 3 hours after administration the test for protective action against MES was carried out.
As percentage action the percentage proportion of those animals which in the MES test were protected 100% against the extensor spasm is given. 10 animals were used per test.
The ED 50 values were determined according to Lichtfield and Wilcoxon J. Pharmacol. exp. Therapeut. 96, 99 (1949) in each case with 4 to 5 animal groups each of 8-10 animals per dosage stage.

[3] = test system: maximum electroshock spasm (MES), extensor spasm in mice; test: as above; format: in vivo, male mice (NMRI); settings: Mus musculus, ip, 1 h, read-out: protective action [%] after 1 hr
[4] = po, 1 h, 50 mg/kg, oral, 1 hr after administration, n = 10, read-out: protective action [%] after 1 hr
[5] = po, 3 h, 50 mg/kg, oral, 3 hrs after administration, n = 10, read-out: protective action [%] after 3 hrs
[6] = po, 1 h, 100 mg/kg, oral, 1 hr after administration, n = 10, read-out: protective action [%] after 1 hr
[7] = po, 3 h, 100 mg/kg, oral, 3 hrs after administration, n = 10, read-out: protective action [%] after 3 hrs
[8] = MES test, oral, 1 hour after administration
[9] = po, 1 h, MES test, oral, 1 hour after administration

Structure (SMILES): CCCC(C)C1(CC)C(=O)NC(=O)NC1=O (stereo not drawn) [pentobarbital]
- Neurotoxic limiting dose in the mouse, dose p.o. ([1]; p.o.): 60 mg/kg

Structure (SMILES): NC(=O)N1c2ccccc2C=Cc2ccccc21 [carbamazepine, reference compound]
- Neurotoxic limiting dose in the mouse, dose p.o. ([1]; in vivo, po): 100 mg/kg
- responders at 50 mg/kg [2, 4]: 100%
- responders at 50 mg/kg [2, 5]: 100%

Structure (SMILES): CCC1(C)CC(=O)NC1=O (stereo not drawn) [ethosuximide, reference compound]
- Neurotoxic limiting dose in the mouse, dose p.o. ([1]; in vivo, po): 500 mg/kg
- responders at 100 mg/kg [2, 6]: 0%
- responders at 100 mg/kg [2, 7]: 0%
- ED50 ([2]; po, 4 h, MES test, oral, ** 4 hours after administration): > 250 mg/kg

Structure (SMILES): CCCC(CCC)C(=O)O [valproic acid, reference compound]
- Neurotoxic limiting dose in the mouse, dose p.o. ([1]; p.o.): 350 mg/kg
- responders at 100 mg/kg [3]: 0%
- ED50 ([2]; ip, 1 h): 205 mg/kg
- responders at 100 mg/kg ([2]; ip, 3 h, read-out: protective action [%] after 3 hrs): 0%

Structure (SMILES): CCC1(c2ccccc2)C(=O)NC(=O)NC1=O [phenobarbital, reference compound]
- Neurotoxic limiting dose in the mouse, dose p.o. ([1]; p.o.): 60 mg/kg
- ED50 ([2]; po, 1 h): 19.2 mg/kg
- responders at 100 mg/kg ([2]; po, 1 h, read-out: protective action [%] after 1 hr): 100%
- responders at 100 mg/kg ([2]; po, 3 h, read-out: protective action [%] after 3 hrs): 100%

Structure (SMILES): COC1=CC(=O)OC1C(OC(=O)[C@@H]1CCCN1)c1ccccc1C(F)(F)F (stereo partly drawn) [139 B]
- responders at 100 mg/kg [2, 6]: 40%
- responders at 100 mg/kg [2, 7]: 10%

Structure (SMILES): COC1=CC(=O)O[C@H]1[C@H](OC(=O)CNC(C)=O)c1ccc(Cl)cc1Cl (relative stereo) [Example 132, threo-5-[N-acetylglycyloxy-(2,4-dichlorophenyl)-methyl]-4-methoxy-2(5H)-furanone]
- responders at 100 mg/kg [2, 6]: 20%
- responders at 100 mg/kg [2, 7]: 50%

Structure (SMILES): COC1=CC(=O)OC1C(OC(=O)[C@@H]1CCCN1)c1ccccc1C (single isomer, unassigned) [141 A]
- ED 50 values (estimated values) [2, 8]: 110 to 120 mg/kg
- responders at 100 mg/kg [2, 6]: 40%
- responders at 100 mg/kg [2, 7]: 10%

Structure (SMILES): COC1=CC(=O)OC1C(OC(=O)[C@@H]1CCCN1C(=O)OCc1ccccc1)c1cc(Cl)ccc1Cl (single isomer, unassigned) [136 A]
- ED 50 values (estimated values) [2, 8]: 40 to 50 mg/kg
- responders at 50 mg/kg [2, 4]: 60%
- responders at 50 mg/kg [2, 5]: 50%

Structure (SMILES): COC1=CC(=O)OC1C(OC(=O)[C@@H]1CCC(=O)N1)c1ccccc1Cl (single isomer, unassigned) [125 A]
- responders at 50 mg/kg [2, 4]: 100%
- responders at 50 mg/kg [2, 5]: 80%

Structure (SMILES): O=C1NC(=O)C(c2ccccc2)(c2ccccc2)N1 [phenytoin, diphenylhydantoin, reference compound]
- Neurotoxic limiting dose in the mouse, dose p.o. ([1]; in vivo, po): 100 mg/kg
- responders at 50 mg/kg [2, 4]: 100%
- ED50 [2, 9]: 9.1 mg/kg
- responders at 50 mg/kg [2, 5]: 100%

Structure (SMILES): COC1=CC(=O)OC1C(OC(=O)[C@@H]1CCCN1C(C)=O)c1ccccc1Cl (single isomer, unassigned) [107 A]
- ED 50 values (estimated values) [2, 8]: 10 to 15 mg/kg
- responders at 100 mg/kg [2, 6]: 100%
- responders at 100 mg/kg [2, 7]: 60%

Structure (SMILES): COC1=CC(=O)OC1C(OC(=O)[C@@H]1CCCN1)c1ccccc1 (stereo partly drawn) [110 A]
- ED 50 values (estimated values) [2, 8]: 40 to 50 mg/kg
- responders at 100 mg/kg [2, 6]: 100%
- responders at 100 mg/kg [2, 7]: 0%

Structure (SMILES): COC1=CC(=O)OC1C(OC(=O)[C@H](C)N)c1ccc(Cl)cc1Cl (stereo partly drawn) [Example 133, threo-5-[L-alanyloxy-(2,4-dichlorophenyl)-methyl]-4-methoxy-2(5H)-furanone hydrobromide]
- ED 50 values (estimated values) [2, 8]: 60 to 70 mg/kg
- responders at 100 mg/kg [2, 6]: 100%
- responders at 100 mg/kg [2, 7]: 100%

Structure (SMILES): COC1=CC(=O)OC1C(OC(=O)[C@@H](N)CCC(=O)O)c1ccccc1Cl (single isomer, unassigned) [123 A]
- responders at 50 mg/kg [2, 4]: 70%
- responders at 50 mg/kg [2, 5]: 20%

Structure (SMILES): COC1=CC(=O)OC1C(OC(=O)CNC(C)=O)c1ccccc1Cl (single isomer, unassigned; (+)) [Example 150]
- protective action [%] after 1 hr ([2]; 50 mg/kg, oral, 1 hr after administration, n = 10): 100%
- protective action [%] after 3 hrs ([2]; 50 mg/kg, oral, 3 hrs after administration, n = 10): 100%
- ED 50 values [2, 8]: 14.4 mg/kg

Structure (SMILES): COC1=CC(=O)O[C@H]1[C@H](OC(=O)CCCN)c1ccccc1Cl (relative stereo) [Example 114, threo-5-[4-aminobutanoyloxy-(2-chlorophenyl)-methyl]-4-methoxy-2(5H)-furanone hydrochloride]
- protective action [%] after 3 hrs ([2]; 50 mg/kg, oral, 3 hrs after administration, n = 10, hydrochloride): 30%
- ED50 [2, 9]: 40 mg/kg
